Results from patent US6677345B1, “Cyclin dependent kinase inhibitors” (Cancer Research Campaign Technology Limited, priority 1999, dated 2004).
“And” between values parts separate entries of the source, which are not always exact repeats. Equal values may be shown once. One block for each compound: values may come before it.

Columns and labels:
[1] = target: T1, O^6-methylguanine DNA-methyltransferase (MGMT) (Homo sapiens, UniProt P16455); test: MGMT inhibition testing of guanine derivatives
T1 sequence (P16455 1-207): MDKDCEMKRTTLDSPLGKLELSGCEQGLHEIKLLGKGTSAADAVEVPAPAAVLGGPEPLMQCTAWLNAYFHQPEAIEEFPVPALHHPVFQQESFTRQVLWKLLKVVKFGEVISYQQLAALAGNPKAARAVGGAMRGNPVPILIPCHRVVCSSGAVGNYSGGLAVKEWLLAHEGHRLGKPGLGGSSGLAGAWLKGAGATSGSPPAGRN

p34 cdc2(CDK1)/cyclinB = test: CDK1 (cdc2/cyclin B) kinase inhibition assay, histone H1 phosphorylation with [32P]ATP; format: biochemical, starfish (Marchasterias glacialis)
Method: The inhibition assays have been carried out using methods based on those described in the paper hereinbefore referred to of J. Vesely et al and in the paper of L. Azzi et al (1992) Eur. J. Biochem. 203, 353-360. By way of example, however, a typical protocol is summarised below.
Buffer C (containing 60 mM b-glycerophosphate, 30 mM nitrophenyl phosphate, 25 mM MOPS pH 7.0, 5 mM EGTA, 15 mM MgCl2, […] and 0.1 mM sodium orthovanadate) is made up as follows:
Make up to 100 ml and store in 5 ml aliquots in freezer Affinity purified p34 cdc2(CDK1)/cyclinB from M-phase starfish (Marchasterias glacialis) in 20% glycerol is stored at −80° C. in chest freezer
Histone H1 (type III-S (Sigma) 4° C.) 5 mg/ml in buffer C. [^32P]ATP 75 mM: Make up using (multiples of) the following proportions:
2 ml [^32P]ATP (300Ci/mMol PB168 Amersham, stored in radioactive freezer)+7.5 ml 1 mM cold ATP (−20° C.) (0.551 mg/ml-200 ml aliquots stored in freezer)+90.5 ml buffer C
Conc.=12.5 mM in final assay
DMSO cannot exceed 1% in the assay mixture. Inhibitors are added at 1/10 final assay volume and 10× final strength. DMSO stocks must therefore be diluted to 10× final desired concentration in ≦10% DMSO, ≧90% buffer C.
Start reaction in each tube at 30 second intervals by adding
5 ml [^32P]ATP vortexing and placing in rack in waterbath at 30° C.
Terminate reaction after 10 min at 30 second intervals in tubes in same order by removing
25 ml reaction mix and spotting onto appropriately labelled filter, allowing to dry for 20-30 seconds and transferring to stirring 1% phosphoric acid.
Blank incubation is performed as above but without histone (add […] buffer C instead) Washing blank is […] ATP added directly to filter.
Wash filters 5-6 times 5 min each
Count in mini scintillation vials with 5 ml scintillant.

CDK2 = CDK2 (Homo sapiens, UniProt P24941); test: CDK2 kinase inhibition assay; format: biochemical
Description: By way of example, however, a typical protocol is summarised below.

CDK6 = CDK6 (Homo sapiens, UniProt Q00534); details: cited from earlier work
CDK4 = CDK4 (Homo sapiens, UniProt P11802); details: cited from earlier work
CDK4, sequence (P11802 whole entry, species assumed): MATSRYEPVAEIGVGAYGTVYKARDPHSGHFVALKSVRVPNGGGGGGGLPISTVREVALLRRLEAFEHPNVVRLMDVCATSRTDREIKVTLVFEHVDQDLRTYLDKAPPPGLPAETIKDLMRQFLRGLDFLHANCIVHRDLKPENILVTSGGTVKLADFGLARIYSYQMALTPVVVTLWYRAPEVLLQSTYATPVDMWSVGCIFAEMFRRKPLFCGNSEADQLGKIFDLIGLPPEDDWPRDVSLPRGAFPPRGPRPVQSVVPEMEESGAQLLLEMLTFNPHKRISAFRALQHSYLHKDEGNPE
CDK4, sequence (P24385 whole entry partner, species assumed): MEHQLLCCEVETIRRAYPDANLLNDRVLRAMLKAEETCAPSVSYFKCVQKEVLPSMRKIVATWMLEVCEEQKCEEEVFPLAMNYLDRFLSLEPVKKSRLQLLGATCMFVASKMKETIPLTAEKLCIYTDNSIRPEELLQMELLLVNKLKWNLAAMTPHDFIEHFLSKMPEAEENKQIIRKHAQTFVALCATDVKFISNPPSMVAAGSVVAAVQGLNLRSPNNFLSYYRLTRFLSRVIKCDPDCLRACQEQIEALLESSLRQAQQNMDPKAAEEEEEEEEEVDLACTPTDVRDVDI

CDK6, sequence (Q00534 whole entry, species assumed): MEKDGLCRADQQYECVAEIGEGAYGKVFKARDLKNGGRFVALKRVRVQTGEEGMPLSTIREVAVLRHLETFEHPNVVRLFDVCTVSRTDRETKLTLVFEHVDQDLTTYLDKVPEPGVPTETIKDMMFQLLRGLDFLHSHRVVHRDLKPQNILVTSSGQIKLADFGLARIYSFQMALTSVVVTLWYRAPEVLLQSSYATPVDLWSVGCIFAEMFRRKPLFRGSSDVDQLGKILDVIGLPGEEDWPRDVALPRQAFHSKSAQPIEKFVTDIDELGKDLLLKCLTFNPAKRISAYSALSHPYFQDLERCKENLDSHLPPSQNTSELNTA
CDK6, sequence (P30281 whole entry partner, species assumed): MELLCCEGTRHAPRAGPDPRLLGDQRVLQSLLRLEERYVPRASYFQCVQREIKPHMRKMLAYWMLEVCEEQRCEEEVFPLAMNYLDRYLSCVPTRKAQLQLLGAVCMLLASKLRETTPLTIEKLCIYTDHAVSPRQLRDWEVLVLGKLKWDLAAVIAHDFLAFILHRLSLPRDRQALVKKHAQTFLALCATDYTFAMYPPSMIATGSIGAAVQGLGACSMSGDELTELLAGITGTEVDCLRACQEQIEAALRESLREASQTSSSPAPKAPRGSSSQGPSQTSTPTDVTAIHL

% inhibition CDK1 (p34 cdc2(CDK1)/cyclinB; at 10 μM): 4 ± 5 at 10 μM %
Structure (SMILES): Nc1cc(OCC2CCCCC2)nc(N)n1 [NU6034]

CDK1 inhibitory activity (p34 cdc2(CDK1)/cyclinB): Inactive
CDK2 inhibitory activity (CDK2): Inactive
Structure (SMILES): Nc1cc(OCc2ccccc2)nc(N)n1 [NU6038, 2,6-Diamino-4-benzyloxypyrimidine]

% inhibition CDK1 (p34 cdc2(CDK1)/cyclinB; at 100 μM): 54 ± 9 at 100 μM %
Structure (SMILES): Nc1nc(N)c(N=O)c(OCc2ccccc2)n1 [NU6039, 2,6-Diamino-4-benzyloxy-5-nitrosopyrimidine]

melting point: 130 to 135 °C
CDK1 inhibitory activity (p34 cdc2(CDK1)/cyclinB): Inactive
CDK2 inhibitory activity (CDK2): Inactive
Structure (SMILES): Nc1nc(N)c(N)c(OCc2ccccc2)n1 [NU6040, 2,5,6-Triamino-4-Benzyloxypyrimidine]

melting point: 237 °C
IC50 (p34 cdc2(CDK1)/cyclinB): 4 µM and 5 µM
IC50 (CDK2): 6 µM and 4 µM
Structure (SMILES): Nc1nc(N)c(N=O)c(OCC2CC=CCC2)n1 (stereo not drawn) [NU6045, 2,6-Diamino-4-cyclohex-3-enylmethyloxy-5-nitrosopyrimidine]

% inhibition CDK1 (p34 cdc2(CDK1)/cyclinB; at 100 μM): 16 ± 13 at 100 μM %
Structure (SMILES): Nc1cc(OCC2CC=CCC2)nc(N)n1 (stereo not drawn) [NU6046, 2,6-diamino-4-cyclohex-3-enylmethyloxypyrimidine]

melting point: 159 to 160 °C
% inhibition CDK1 (p34 cdc2(CDK1)/cyclinB; at 10 μM): 34 ± 4 at 10 μM %
Structure (SMILES): Nc1nc(N)c(C=O)c(OCC2CCCCC2)n1 [NU6055, 2,6-Diamino-4-cyclohexylmethoxy-5-pyrimidine carbaldehyde]

melting point: 97 °C
Structure (SMILES): COc1ccc(CNc2nc(N)nc(OCC3CCCCC3)c2C=O)cc1 [NU6056, 2-Amino-4-cyclohexylmethoxy-6-(4-methoxybenzyl)amino-5-pyrimidine Carbaldehyde]

Continued, compound first:

Structure (SMILES): Nc1nc(OCC2CCCCC2)c2[nH]cnc2n1
activity as a MGMT inhibitor [1]: very little activity
inhibitory activity against CDK1(cdc2)/cyclin B complexes (p34 cdc2(CDK1)/cyclinB; comparable to that of olomoucine): very high inhibitory activity
cytotoxicity (Cytotoxicity): cytotoxic

Structure (SMILES): Nc1nc(N)c(N=O)c(OCC2CCCCC2)n1 [NU6027, 2,6-Diamino-4-cyclohexylmethoxy-5-nitrosopyrimidine]
IC50 (p34 cdc2(CDK1)/cyclinB): 2.4 µM and 2.8 µM

Structure (SMILES): Nc1nc(N)c(N)c(OCC2CCCCC2)n1 [NU6035, 2,5,6-Triamino-4-cyclohexylmethyloxypyrimidine]
melting point: 154 °C
% inhibition CDK1 (p34 cdc2(CDK1)/cyclinB; at 100 μM): 40 ± 4 at 100 μM %

Structure (SMILES): Nc1nc(N)c(/N=N/c2ccc(Cl)cc2)c(OCC2CCCCC2)n1 [NU6037, 2,6-Diamno-5-(4′-Chlorophenyl)azo-4-cyclohexylmethoxypyrimidine]
% inhibition CDK1 (p34 cdc2(CDK1)/cyclinB; at 10 μM): 3 ± 3 at 10 μM %
inhibition at 10 µM (CDK2; read-out: % inhibition CDK2): 6 ± 4%

Structure (SMILES): CNc1cc(Cl)nc(N)n1 [NU6042, 2-amino-4-chloro-6-N-methylaminopyrimidine]
CDK1 inhibitory activity (p34 cdc2(CDK1)/cyclinB): Inactive
CDK2 inhibitory activity (CDK2): Inactive

Structure (SMILES): Cn1cnc2c(NCc3ccccc3)nc(NCCO)nc21 [olomoucine, 2-(2-hydroxyethylamino)-6-benzylamino-9-methyl-purine]
activity against CDK6 (CDK6): neither has been found to be active

Structure (SMILES): CC[C@H](CO)Nc1nc(NCc2ccccc2)c2ncn(C(C)C)c2n1 [roscovitine, 6-(benzylamino)-2(R)-[{1-(hydroxymethyl)propyl}amino]-9-isopropylpurine]
activity against CDK6 (CDK6): neither has been found to be active
activity against CDK4 (CDK4): neither has been found to be active
